Results as given in US20130324413A1, “METHOD FOR PROMOTING PLANT GROWTH” (SUMITOMO CHEMICAL COMPANY, LIMITED, priority 2011, published 2013).

What was measured:
Format in all cases: in vivo
[1] = test system: corn seeds (cultivar: Kuromochi); assay: Test Example 1: corn seed coating, fresh weight of above-ground part after 18 days; details: for Average fresh weight of above-ground part: seed coating, grown 18 days at 27° C., non-treated 4.2 g
Procedure: A blank slurry solution containing 5% (V/V) color coat red (Becker Underwood, Inc.), 5% (V/V) CF-Clear (Becker Underwood, Inc.) and 0.4% Maxim XL (Syngenta) was prepared. […] In a 50-ml centrifuge tube (manufactured by BD Japan), 0.48 ml of the slurry solution was placed for each 20 g of corn seeds (cultivar: Kuromochi) and stirred until the solution was dried, thereby coating the seeds. As a control, seeds were coated with the blank slurry solution and used as seeds for a non-treated group. Two treated corn seeds were sown in the culture soil (AISAI) in each plastic pot (55 mm in diameter×58 mm in height) and grown for 18 days under the following conditions: temperature, 27° C.; illuminance, about 5,000 lux; day length, 16 hours. The fresh weight of the above-ground part of the plants was measured. The experiment was performed in four replications for each treatment condition and the average weight per individual was calculated.

[2] = test system: Corn (cultivar: Hughes 5813); assay: Test Example 2: corn seed treatment, amount of harvested grains; details: grown 226 days
Procedure: Corn (cultivar: Hughes 5813) seeds were separately treated with 25 μg or 125 μg of compound (1b) for each seed. The amount of the compound required for the treatment was determined by calculation assuming 4,000 grains per kg of seeds. The seeds were coated using seed treatment machine HEGE11(produced by Hans-Ulrich Hege). All the seed treatments included Maxim XL (0.167 ounces/100 pounds), Thiram 42S (2.5 ounces/pound), and Cruiser (containing 0.25 mg/seed of thiamethoxam) and CF-Clear polymer at a concentration of 0.5 ounces/pound. The treated seeds were sown and grown for 226 days, and the corn plants were harvested to obtain grains. […] During the testing, no diseases were observed that affected the yield in the present compound-treated group and the non-treated group.

[3] = test system: oilseed rape (Brasicca napus); assay: Test Example 5: oilseed rape field application, percentage of green pods; details: flowable formulation, 250 g per hectare at day 253 (BBCH 65); assessed day 323 (BBCH 85); non-treated 12.75%
From the text: Seeds of oilseed rape (Brasicca napus) were sown and grown. At day 253 after the sowing, at growth stage 65, according to the Biologische Bundesanstalt, Bundessortenamt and CHemical industry (BBCH) scale, the flowable formulation prepared as described in Formulation Example 2 containing compound (1b) was applied in an amount of 250 g per hectare. A plot for the treatment measured 6 m×10 m. This plot was the present compound-treated group. A plot treated with the formulation without compound (1b) was used as the non-treated group, in which plants were cultivated in the same manner as in the present compound-treated group.
At day 323 after the sowing, when almost all the plants entered growth stage 85, according to the BBCH scale, the percentage of pods remaining green among the pods of the plants was examined and determined in both the present compound-treated and non-treated groups.

[4] = test system: corn plants (cultivar: Koshu); assay: Test Example 9: corn seed soaking, low-temperature stress, fresh weight of above-ground part; details: for Average fresh weight of above-ground part: low-temperature stress 3±2° C. 7 days, non-treated 1.18 g
Procedure: Each of the 1,000-fold concentrated dimethylsulfoxide (DMSO) solutions of compound (1b) was 1,000-fold diluted with water to prepare a soultion of compound (1b) at the test concentration. The solution was dispensed in 30 ml aliquots into […] Petri dishes, in which seeds of corn plants (cultivar: Koshu) were soaked and incubated for 16 hours at 24° C. in the dark. The corn seeds were sown in the culture soil (AISAI) in the plastic pots (55 mm in diameter×58 mm in height), and corn seedlings were grown for 4 days under the following conditions: temperature, 27° C.; illuminance, about 5,000 lux; day length, 16 hours. As a control, a 0.1% aqueous DMSO solution was prepared, and seeds were soaked in this solution and then sown and grown into seedlings in the same way as described above. This group was used as the non-treated group. The corn seedlings were placed in a phytotron under the following conditions in order to expose the plants to low-temperature stress for 7 days. • Conditions: “temperature, 3±2° C.; day length, 16 hours; • illuminance, about 5,000 lux; humidity, 35 to 80%” The plants were then grown for another 7 days under the following conditions: temperature, 27° C.; humidity, 50 to 75%, illuminance, about 5,000 lux; day length, 16 hours. Then the fresh weight of the above-ground part of the plants was measured. The experiment was performed in four replications for each individual plant for each treatment condition and the average weight per individual was calculated.

[5] = test system: Basil (cultivar: Sweet Basil; Takii); assay: Test Example 10: basil seedling spraying, low-temperature stress, fresh weight and damage score; details: for Fresh weight of above-ground part: low-temperature stress 3.0° C., non-treated 0.34 g; for Damage score: score 0 (completely killed) to 100 (survived without any damage), survived leaf area, non-treated 17
Procedure: Basil seeds (cultivar: Sweet Basil; Takii) were sown in the culture soil (AISAI) in plastic pots (55 mm in diameter×58 mm in height) and grown for 24 days under the following conditions to obtain a basil seedling per pot: temperature, 27° C.; humidity, 50 to 75%; illuminance, about 6,000 lux; day length, 16 hours.
Compound (1b). was dissolved in dimethylsulfoxide (DMSO) to obtain a DMSO solution of compound (lb) at a 1,000-fold concentration relative to the test concentration. This DMSO solution of compound (1b) was 1,000-fold diluted with water. Then Triton X-100 was added as a surfactant to a final concentration of 0.1%. The spray solution thus prepared was applied in a sufficient amount (15 ml per 3 pots) by means of a handspray.
As a control, a spray solution without compound (ib) was prepared and then sprayed to the non-treated group. The plants were further grown for 1 day under the following conditions: temperature, 27° C.; humidity, 50 to 75%; illuminance, about 6,000 lux; day length, 16 hours.
Subsequently, the basil seedlings were placed in a phytotron under the following conditions, to expose the plants to low-temperature stress. • Conditions: “temperature, 3.0° C.; illuminance, 800 lux; • humidity, 50 to 80%”
The plants were further grown for another 2 days under the following conditions: temperature, 27° C.; humidity, 50 to 75%, illuminance, about 6,000 lux; day length, 16 hours.
The percentage of the leaf area of the portions of true leaves of the basil seedlings which survived without being damaged was scored as follows: completely killed with 0% of the survived leaf area to the total leaf area: 0; survived without any damage with 100% of the survived leaf area to the total leaf: 100; and scored from 0 to 100 by increment of 1 by visual observation. The scores of three plants were averaged to determine the damage score. The aerial part of the basil seedlings was removed to measure the fresh weight of the above-ground part. The average weight of three individuals was recorded as the fresh weight of the above-ground part.

## CNC(=O)C(OC)c1ccccc1COc1cc(C)ccc1C (racemic) [Compound (1b), N-methyl-2-[2-(2,5-dimethylphenoxy)methyl]phenyl-2-methoxyacetamide]
[1]; 12.5 g/ of seeds, non-treated = 100
  Relative value (fresh weight of above-ground part): 105%
[1]; amount ranging from 10 g to 50 g per 100 kg of seeds
  fresh weight of the above-ground part as compared with the control group: increased
[1]; amount of compound 10 g/ of seeds
  Average fresh weight of above-ground part: 4.4 g
[1]; amount of compound 12.5 g/ of seeds
  Average fresh weight of above-ground part: 4.4 g
[1]; amount of compound 25 g/ of seeds
  Average fresh weight of above-ground part: 5.0 g
[1]; amount of compound 50 g/ of seeds
  Average fresh weight of above-ground part: 4.5 g
[2]; seeds treated with 25 μg per seed
  increase in amount of the harvested grains as compared with the non-treated group: 11%
[2]; seeds treated with 125 μg per seed
  increase in amount of the harvested grains as compared with the non-treated group: 9%
[3]
  percentage of green pods: 22.25%
[4]; plants exposed to low-temperature stress, concentration range of 3 ppm to 30 ppm
  fresh weight of the above-ground part as compared with the non-treated group: increased
[4]; seed soaking 3 ppm
  Average fresh weight of above-ground part: 1.49 g
[4]; seed soaking 10 ppm
  Average fresh weight of above-ground part: 2.25 g
[4]; seed soaking 30 ppm
  Average fresh weight of above-ground part: 1.35 g
[5]; spray 10 ppm
  Fresh weight of above-ground part: 0.62 g
  Damage score: 30
[5]; spray 30 ppm
  Fresh weight of above-ground part: 0.72 g
  Damage score: 38
[5]; spray 100 ppm
  Fresh weight of above-ground part: 0.92 g
  Damage score: 81
[5]; spray 250 ppm
  Fresh weight of above-ground part: 0.94 g
  Damage score: 68
